According to US4427671A, “Steroids esterified in position 17 and thioesterified in position 21, a process for preparing them and their use as medicaments” (priority 1981, dated 1984):

Assays:
Assay type in all cases: in vivo, male Sprague-Dawley I.O.P.S. rats
thymus = assay: Systemic activity after local administration: effect on the weight of the thymus; conditions: rat, in vivo, 8640 min
Description: (§1) The pharmacological activity of the products described in the invention was tested in the rat using a technique similar to that described by C. A. Winter and C. C. Porter (J. Am. Pharm. Ass. 1957, 46, 9, pages 515-519).
(§2) The principle of the test consists in implanting a pellet of cotton wool in the dorsal subcutaneous tissue of the animal. The corticoids to be studied are added to the pellet so that the following tests can be carried out:
(§3) (2) Determination of the systemic activity of the products after local administration
(§4) Local application of the corticoids may result, inter alia, in:
(a) a reduction in the defence systems of the organism, the most notable sign of which is a reduction in the weight of the animals' thymuses.
(§5) The animals are divided into random homogeneous groups of 10 male Sprague-Dawley I.O.P.S. rats with a body weight of between 100 and 120 grams.
(§6) The pellets to be implanted weigh from 35 to 40 mg and are prepared from balls of dental cotton wool. Before being inserted, each pellet is weighed and impregnated with the precise quantity of the product which is to be studied, dissolved in 0.2 ml of chloroform. The chloroform is eliminated by evaporation over a period of 24 hours at ambient temperature.
(§7) Before implantation, each pellet is impregnated with a solution of antibiotics:
(§8) The animals are anaesthetised with ether, and then two pellets are implanted in each animal in the dorsal subcutaneous tissue, on each side of the median line:
(§9) on the left, the pellet containing the product to be tested (treated animal) or the carrier only (control animal);
(§10) on the right, the pellet containing the carrier only.
(§11) The animals are given normal food and are sacrificed six days after the pellets have been implanted.
(2) Determination of the systemic effect
The thymuses are taken from the same animals and weighed. Using the same type of calculation, an ED 50 is determined, which corresponds to the dosage of product resulting in a 50% decrease in weight of the thymuses, compared with the control animals.

granuloma = assay: Local anti-inflammatory activity: inhibition of granuloma formation around implanted cotton wool pellet; conditions: for R 1 (relative local anti-inflammatory activity compared with betamethasone 17,21-dipropionate): D.P.B. = 1, calculated from ED50; for R 1 (relative local anti-inflammatory activity compared with betamethasone 17,21-dipropionate) / ED50 (local anti-inflammatory activity, 50% inhibition in granuloma weight): Table 1; for ED50 (local anti-inflammatory activity, 50% inhibition in granuloma weight): rat, cotton pellet granuloma, six days after implantation
Description: A. Winter and C. C. Porter (J. Am. Pharm. Ass. 1957, 46, 9, pages 515-519).
as §2
(1) Determination of the local anti-inflammatory activity
The presence of products within the pellet may inhibit or prevent the formation of a granuloma.
as §5, §6, §7
Streptomycin 0.1 gram/ml.
as §8, §9, §10, §11
(1) Local anti-inflammatory activity
The pellets surrounded by granulomatous tissue are carefully removed and weighed, and then dried until a constant weight is obtained.
The relative activity of the test products compared with betamethasone 17,21-dipropionate is calculated according to the following equation: [formula]

[1] = Systemic activity after local administration: effect on weight gain; conditions: rat, in vivo, 8640 min
Description: as §1, §2, §3, §4
(b) Disruption of the protein metabolism which causes tissue fusion, resulting in an inhibition of the weight increase in animals.
as §5, §6, §7, §8, §9, §10, §11
(b) Effect on weight gain
The weight gain over six days is determined on the animals before they are sacrificed.
The activity of the products was expressed as the percentage inhibition in the weight gain of the treated animals compared with the weight gain in the control animals.
The ED 30 which corresponds to a 30% inhibition in the weight gain was determined.

CCC(=O)O[C@]1(C(=O)CSC(=O)CC)CC[C@H]2[C@@H]3C[C@H](C)C4=CC(=O)C=C[C@]4(C)[C@H]3[C@@H](O)C[C@@]21C [Ex. 5, 11β-hydroxy-6α-methyl-pregna-1,4-diene-3,20-dione (or 6α-methylprednisolone) 17-propionate, 21-thiopropionate]
ED50 (50% decrease in weight of the thymuses) (thymus): > 1 mg/pellet
R 2 (relative effect on thymus weight compared with D.P.B.) (thymus): < 0.86
R 1 (relative local anti-inflammatory activity compared with betamethasone 17,21-dipropionate) (granuloma): 7.7
ED50 (local anti-inflammatory activity, 50% inhibition in granuloma weight) (granuloma): 0.210 mg/pellet
ED30 (30% inhibition in the weight gain) [1]: > 1 mg/pellet
R 3 (relative activity on weight gain compared with D.P.B.) [1]: < 0.8

CCCCC(=O)O[C@]1(C(=O)CSC(=O)CCCC)CC[C@H]2[C@@H]3C[C@H](C)C4=CC(=O)C=C[C@]4(C)[C@H]3[C@@H](O)C[C@@]21C [Ex. 6, 11β-hydroxy-6α-methyl-pregna-1,4-diene-3,20-dione (or 6α-methylprednisolone) 17-valerate, 21-thiovalerate]
ED50 (50% decrease in weight of the thymuses) (thymus): > 1 mg/pellet
R 2 (relative effect on thymus weight compared with D.P.B.) (thymus): < 0.86
R 1 (relative local anti-inflammatory activity compared with betamethasone 17,21-dipropionate) (granuloma): 8.9
ED50 (local anti-inflammatory activity, 50% inhibition in granuloma weight) (granuloma): 0.180 mg/pellet
ED30 (30% inhibition in the weight gain) [1]: > 1 mg/pellet
R 3 (relative activity on weight gain compared with D.P.B.) [1]: < 0.8

CCCCC(=O)O[C@]1(C(=O)CSC(C)=O)CC[C@H]2[C@@H]3C[C@H](C)C4=CC(=O)C=C[C@]4(C)[C@H]3[C@@H](O)C[C@@]21C [Ex. 7, 11β-hydroxy-6α-methyl-pregna-1,4-diene-3,20-dione (or 6α-methylprednisolone) 17-valerate, 21-thioacetate]
ED50 (50% decrease in weight of the thymuses) (thymus): > 1 mg/pellet
R 2 (relative effect on thymus weight compared with D.P.B.) (thymus): < 0.86
R 1 (relative local anti-inflammatory activity compared with betamethasone 17,21-dipropionate) (granuloma): 2.0
ED50 (local anti-inflammatory activity, 50% inhibition in granuloma weight) (granuloma): 0.800 mg/pellet
ED30 (30% inhibition in the weight gain) [1]: > 1 mg/pellet
R 3 (relative activity on weight gain compared with D.P.B.) [1]: < 0.8

CC(=O)OC1(C(=O)CSC(C)=O)C(C)CC2C3CCC4=CC(=O)C=CC4(C)C3(F)C(O)CC21C (stereo not drawn) [Ex. 8, 9α-fluoro-11β-hydroxy-16β-methyl-pregna-1,4-diene-3,20-dione (or betamethasone) 17-acetate, 21-thioacetate]
ED50 (50% decrease in weight of the thymuses) (thymus): 1.20 mg/pellet
R 2 (relative effect on thymus weight compared with D.P.B.) (thymus): 0.71
R 1 (relative local anti-inflammatory activity compared with betamethasone 17,21-dipropionate) (granuloma): 22
ED50 (local anti-inflammatory activity, 50% inhibition in granuloma weight) (granuloma): 0.072 mg/pellet
ED30 (30% inhibition in the weight gain) [1]: 1 mg/pellet
R 3 (relative activity on weight gain compared with D.P.B.) [1]: 0.8

CCC(=O)SCC(=O)C1(OC(C)=O)C(C)CC2C3CCC4=CC(=O)C=CC4(C)C3(F)C(O)CC21C (stereo not drawn) [Ex. 9, 9α-fluoro-11β-hydroxy-16β-methyl-pregna-diene-3,20-dione (or betamethasone) 17-acetate, 21-thiopropionate]
ED50 (50% decrease in weight of the thymuses) (thymus): 1.70 mg/pellet
R 2 (relative effect on thymus weight compared with D.P.B.) (thymus): 0.51
R 1 (relative local anti-inflammatory activity compared with betamethasone 17,21-dipropionate) (granuloma): 16
ED50 (local anti-inflammatory activity, 50% inhibition in granuloma weight) (granuloma): 0.100 mg/pellet
ED30 (30% inhibition in the weight gain) [1]: 1 mg/pellet
R 3 (relative activity on weight gain compared with D.P.B.) [1]: 0.8

CCC(=O)OC1(C(=O)CSC(C)=O)C(C)CC2C3CCC4=CC(=O)C=CC4(C)C3(F)C(O)CC21C (stereo not drawn) [Ex. 10, 9α-fluoro-11β-hydroxy-16β-methyl-pregna-1,4-diene-3,20-dione (or betamethasone) 17-propionate, 21-thioacetate]
ED50 (50% decrease in weight of the thymuses) (thymus): 0.25 mg/pellet
R 2 (relative effect on thymus weight compared with D.P.B.) (thymus): 3.40
R 1 (relative local anti-inflammatory activity compared with betamethasone 17,21-dipropionate) (granuloma): 124
activity compared with betamethasone 17,21-dipropionate (times greater) (granuloma; local anti-inflammatory test): more than 100 times
ED50 (local anti-inflammatory activity, 50% inhibition in granuloma weight) (granuloma): 0.013 mg/pellet
ED30 (30% inhibition in the weight gain) [1]: > 1 mg/pellet
R 3 (relative activity on weight gain compared with D.P.B.) [1]: < 0.8
